Data from ChEMBL document CHEMBL5678810.
Active and inactive are the calls of the source. The rule behind the calls is not given here.

Columns and labels:
[1] = target: Serine/threonine-protein kinase 16 (Homo sapiens) (UniProt O75716); test: Inhibition of T7 bacteriophage fused human STK16 at 10 uM by KINOMEscan analysis relative to control
[2] = test system: Receptor-type tyrosine-protein kinase FLT3 (Homo sapiens), P36888 [UNDEFINED MUTATION]; test: Inhibition of T7 bacteriophage fused human FLT3 ITD mutant at 10 uM by KINOMEscan analysis relative to control
[3] = target: Mitogen-activated protein kinase kinase kinase 13 (Homo sapiens) (UniProt O43283); test: Inhibition of T7 bacteriophage fused human LZK at 10 uM by KINOMEscan analysis relative to control
[4] = target: Phosphatidylinositol 3-kinase C2 domain-containing subunit gamma (Homo sapiens) (UniProt O75747); test: Inhibition of T7 bacteriophage fused human PIK3C2G at 10 uM by KINOMEscan analysis relative to control
[5] = test system: Tyrosine-protein kinase ABL1 (Homo sapiens), P00519 [F317L]; test: Inhibition of T7 bacteriophage fused human nonphosphorylated ABL1 F317L mutant at 10 uM by KINOMEscan analysis relative to control
[6] = target: Maternal embryonic leucine zipper kinase (Homo sapiens) (UniProt Q14680); test: Inhibition of T7 bacteriophage fused human MELK at 10 uM by KINOMEscan analysis relative to control
[7] = target: Casein kinase I isoform gamma-1 (Homo sapiens) (UniProt Q9HCP0); test: Inhibition of T7 bacteriophage fused human CSNK1G1 at 10 uM by KINOMEscan analysis relative to control
[8] = target: Epithelial discoidin domain-containing receptor 1 (Homo sapiens) (UniProt Q08345); test: Inhibition of T7 bacteriophage fused human DDR1 at 10 uM by KINOMEscan analysis relative to control
[9] = target: Protein kinase C epsilon type (Homo sapiens) (UniProt Q02156); test: Inhibition of T7 bacteriophage fused human PRKCE at 10 uM by KINOMEscan analysis relative to control
[10] = target: Serine/threonine-protein kinase 10 (Homo sapiens) (UniProt O94804); test: Inhibition of T7 bacteriophage fused human LOK at 10 uM by KINOMEscan analysis relative to control
[11] = test system: Epidermal growth factor receptor (Homo sapiens), P00533 [L858R,T790M]; test: Inhibition of T7 bacteriophage fused human EGFR L858R/T790M mutant at 10 uM by KINOMEscan analysis relative to control
[12] = test system: Hepatocyte growth factor receptor (Homo sapiens), P08581 [M1250T]; test: Inhibition of T7 bacteriophage fused human MET M1250T mutant at 10 uM by KINOMEscan analysis relative to control; values are per cent of control
[13] = target: Tyrosine-protein kinase FRK (Homo sapiens) (UniProt P42685); test: Inhibition of T7 bacteriophage fused human FRK at 10 uM by KINOMEscan analysis relative to control; values are per cent of control
[14] = test system: eIF-2-alpha kinase GCN2 (Homo sapiens), Q9P2K8 [S808G]; test: Inhibition of T7 bacteriophage fused human GCN2 S808G mutant Kinase domain-2 at 10 uM by KINOMEscan analysis relative to control
[15] = test system: Epidermal growth factor receptor (Homo sapiens), P00533 [UNDEFINED MUTATION]; test: Inhibition of T7 bacteriophage fused human EGFR E746/A750del mutant at 10 uM by KINOMEscan analysis relative to control; values are per cent of control
[16] = target: Serine/threonine-protein kinase D3 (Homo sapiens) (UniProt O94806); test: Inhibition of T7 bacteriophage fused human PRKD3 at 10 uM by KINOMEscan analysis relative to control
[17] = target: RAC-alpha serine/threonine-protein kinase (Homo sapiens) (UniProt P31749); test: Inhibition of T7 bacteriophage fused human AKT1 at 10 uM by KINOMEscan analysis relative to control
[18] = target: Megakaryocyte-associated tyrosine-protein kinase (Homo sapiens) (UniProt P42679); test: Inhibition of T7 bacteriophage fused human CTK at 10 uM by KINOMEscan analysis relative to control
[19] = test system: Receptor-type tyrosine-protein kinase FLT3 (Homo sapiens), P36888 [D835Y]; test: Inhibition of T7 bacteriophage fused human FLT3 D835Y mutant at 10 uM by KINOMEscan analysis relative to control
[20] = target: Leukocyte tyrosine kinase receptor (Homo sapiens) (UniProt P29376); test: Inhibition of T7 bacteriophage fused human LTK at 10 uM by KINOMEscan analysis relative to control; values are per cent of control
[21] = target: Cyclin-dependent kinase 11B (Homo sapiens) (UniProt P21127); test: Inhibition of T7 bacteriophage fused human CDK11 at 10 uM by KINOMEscan analysis relative to control
[22] = target: Tyrosine-protein kinase Lck (Homo sapiens) (UniProt P06239); test: Inhibition of T7 bacteriophage fused human LCK at 10 uM by KINOMEscan analysis relative to control
[23] = target: Serine/threonine-protein kinase ULK2 (Homo sapiens) (UniProt Q8IYT8); test: Inhibition of T7 bacteriophage fused human ULK2 at 10 uM by KINOMEscan analysis relative to control
[24] = target: Mitogen-activated protein kinase kinase kinase kinase 5 (Homo sapiens) (UniProt Q9Y4K4); test: Inhibition of T7 bacteriophage fused human MAP4K5 at 10 uM by KINOMEscan analysis relative to control
[25] = target: Mitogen-activated protein kinase kinase kinase 10 (Homo sapiens) (UniProt Q02779); test: Inhibition of T7 bacteriophage fused human MLK2 at 10 uM by KINOMEscan analysis relative to control
[26] = target: Phosphorylase b kinase gamma catalytic chain, skeletal muscle/heart isoform (Homo sapiens) (UniProt Q16816); test: Inhibition of T7 bacteriophage fused human PHKG1 at 10 uM by KINOMEscan analysis relative to control
[27] = test system: Tyrosine-protein kinase ABL1 (Homo sapiens), P00519 [Q252H]; test: Inhibition of T7 bacteriophage fused human nonphosphorylated ABL1 Q252H mutant at 10 uM by KINOMEscan analysis relative to control
[28] = target: Fibroblast growth factor receptor 4 (Homo sapiens) (UniProt P22455); test: Inhibition of T7 bacteriophage fused human FGFR4 at 10 uM by KINOMEscan analysis relative to control; values are per cent of control
[29] = target: Hepatocyte growth factor receptor (Homo sapiens) (UniProt P08581); test: Inhibition of T7 bacteriophage fused human MET at 10 uM by KINOMEscan analysis relative to control
[30] = target: Leucine-rich repeat serine/threonine-protein kinase 2 (Homo sapiens) (UniProt Q5S007); test: Inhibition of wildtype GFP-tagged LRRK2 phosphorylation at Ser935 residue (unknown origin) transfected in HEK293 cells upto 3 uM incubated for 90 mins by immunoblot analysis; type: cell-based

Sequence of Tyrosine-protein kinase FRK (Homo sapiens) (P42685 whole entry, the tested form may be a part): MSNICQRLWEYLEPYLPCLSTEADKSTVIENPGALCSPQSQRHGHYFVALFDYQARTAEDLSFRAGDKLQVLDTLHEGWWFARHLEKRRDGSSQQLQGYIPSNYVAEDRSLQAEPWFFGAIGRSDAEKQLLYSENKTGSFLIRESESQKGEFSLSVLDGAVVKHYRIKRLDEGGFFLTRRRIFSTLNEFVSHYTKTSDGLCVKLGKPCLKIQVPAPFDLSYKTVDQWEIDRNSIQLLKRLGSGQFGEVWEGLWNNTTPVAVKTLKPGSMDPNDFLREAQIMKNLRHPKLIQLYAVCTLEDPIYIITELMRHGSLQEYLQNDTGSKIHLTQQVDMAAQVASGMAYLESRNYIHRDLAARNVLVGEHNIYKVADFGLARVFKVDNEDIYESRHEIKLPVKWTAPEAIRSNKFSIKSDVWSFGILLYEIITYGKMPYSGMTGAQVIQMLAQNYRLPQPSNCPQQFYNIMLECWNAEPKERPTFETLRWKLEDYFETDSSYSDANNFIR
Sequence of Leukocyte tyrosine kinase receptor (Homo sapiens) (P29376 whole entry, the tested form may be a part): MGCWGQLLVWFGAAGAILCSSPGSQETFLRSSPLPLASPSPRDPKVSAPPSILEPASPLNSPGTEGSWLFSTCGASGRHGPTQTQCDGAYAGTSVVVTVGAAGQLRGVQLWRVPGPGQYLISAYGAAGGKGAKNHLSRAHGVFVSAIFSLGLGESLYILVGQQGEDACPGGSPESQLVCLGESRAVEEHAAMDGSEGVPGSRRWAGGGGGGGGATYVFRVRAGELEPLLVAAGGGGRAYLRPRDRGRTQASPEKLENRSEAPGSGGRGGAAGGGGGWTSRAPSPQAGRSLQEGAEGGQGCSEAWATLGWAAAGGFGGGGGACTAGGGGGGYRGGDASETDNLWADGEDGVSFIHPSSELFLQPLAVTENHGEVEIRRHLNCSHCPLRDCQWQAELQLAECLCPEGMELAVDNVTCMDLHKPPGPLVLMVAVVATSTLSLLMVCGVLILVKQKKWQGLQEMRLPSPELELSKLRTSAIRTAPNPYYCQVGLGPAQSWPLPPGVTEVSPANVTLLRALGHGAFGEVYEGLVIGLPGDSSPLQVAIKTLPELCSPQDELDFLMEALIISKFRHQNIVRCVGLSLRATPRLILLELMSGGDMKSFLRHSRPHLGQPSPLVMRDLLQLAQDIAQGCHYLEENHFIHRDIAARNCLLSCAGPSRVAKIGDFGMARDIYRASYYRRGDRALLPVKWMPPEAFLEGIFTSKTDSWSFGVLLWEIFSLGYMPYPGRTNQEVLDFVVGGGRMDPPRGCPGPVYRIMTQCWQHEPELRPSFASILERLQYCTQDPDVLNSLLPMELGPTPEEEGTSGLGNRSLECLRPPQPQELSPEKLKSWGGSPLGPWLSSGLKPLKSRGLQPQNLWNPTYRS
Sequence of Casein kinase I isoform gamma-1 (Homo sapiens) (Q9HCP0 whole entry, looked up, the tested form may be a part, canonical isoform): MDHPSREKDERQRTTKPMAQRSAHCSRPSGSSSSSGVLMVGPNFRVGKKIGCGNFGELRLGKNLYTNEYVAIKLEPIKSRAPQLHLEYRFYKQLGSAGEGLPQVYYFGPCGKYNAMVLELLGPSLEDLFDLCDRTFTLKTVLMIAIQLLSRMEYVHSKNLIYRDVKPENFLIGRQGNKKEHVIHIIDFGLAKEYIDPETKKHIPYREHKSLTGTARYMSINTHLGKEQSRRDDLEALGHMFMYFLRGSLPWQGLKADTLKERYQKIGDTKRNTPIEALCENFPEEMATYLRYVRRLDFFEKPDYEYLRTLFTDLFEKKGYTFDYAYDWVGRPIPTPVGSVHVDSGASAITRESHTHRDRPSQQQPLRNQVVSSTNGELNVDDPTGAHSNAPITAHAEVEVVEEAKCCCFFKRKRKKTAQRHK
Sequence of Serine/threonine-protein kinase ULK2 (Homo sapiens) (Q8IYT8 whole entry, the tested form may be a part): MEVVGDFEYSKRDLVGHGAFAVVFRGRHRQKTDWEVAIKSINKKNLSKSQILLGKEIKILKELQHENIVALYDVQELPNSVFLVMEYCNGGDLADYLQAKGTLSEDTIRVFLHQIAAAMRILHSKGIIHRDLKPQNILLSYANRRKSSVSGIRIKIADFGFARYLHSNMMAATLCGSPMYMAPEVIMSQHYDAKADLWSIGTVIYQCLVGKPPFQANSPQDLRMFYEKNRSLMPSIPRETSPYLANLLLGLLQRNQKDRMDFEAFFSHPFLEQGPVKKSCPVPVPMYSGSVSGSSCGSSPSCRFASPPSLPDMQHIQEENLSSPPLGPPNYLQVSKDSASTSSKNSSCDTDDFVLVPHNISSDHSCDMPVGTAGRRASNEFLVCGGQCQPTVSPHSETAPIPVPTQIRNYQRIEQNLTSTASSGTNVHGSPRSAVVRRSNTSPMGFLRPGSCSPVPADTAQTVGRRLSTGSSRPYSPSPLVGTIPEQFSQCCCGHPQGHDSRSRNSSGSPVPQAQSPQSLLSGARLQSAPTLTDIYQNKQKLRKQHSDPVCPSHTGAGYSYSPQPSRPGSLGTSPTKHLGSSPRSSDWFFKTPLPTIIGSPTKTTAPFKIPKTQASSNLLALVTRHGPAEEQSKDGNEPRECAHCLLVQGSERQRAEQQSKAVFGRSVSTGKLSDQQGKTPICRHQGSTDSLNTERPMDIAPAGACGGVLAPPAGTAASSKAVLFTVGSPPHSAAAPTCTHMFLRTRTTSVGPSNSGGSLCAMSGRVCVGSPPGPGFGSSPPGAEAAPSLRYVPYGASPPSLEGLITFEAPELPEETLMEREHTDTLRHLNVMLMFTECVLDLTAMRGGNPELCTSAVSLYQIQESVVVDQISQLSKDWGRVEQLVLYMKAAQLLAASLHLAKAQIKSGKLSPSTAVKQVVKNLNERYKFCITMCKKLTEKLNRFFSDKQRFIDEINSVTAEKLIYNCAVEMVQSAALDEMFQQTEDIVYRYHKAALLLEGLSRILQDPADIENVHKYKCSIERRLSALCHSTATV
Sequence of Epithelial discoidin domain-containing receptor 1 (Homo sapiens) (Q08345 whole entry, the tested form may be a part): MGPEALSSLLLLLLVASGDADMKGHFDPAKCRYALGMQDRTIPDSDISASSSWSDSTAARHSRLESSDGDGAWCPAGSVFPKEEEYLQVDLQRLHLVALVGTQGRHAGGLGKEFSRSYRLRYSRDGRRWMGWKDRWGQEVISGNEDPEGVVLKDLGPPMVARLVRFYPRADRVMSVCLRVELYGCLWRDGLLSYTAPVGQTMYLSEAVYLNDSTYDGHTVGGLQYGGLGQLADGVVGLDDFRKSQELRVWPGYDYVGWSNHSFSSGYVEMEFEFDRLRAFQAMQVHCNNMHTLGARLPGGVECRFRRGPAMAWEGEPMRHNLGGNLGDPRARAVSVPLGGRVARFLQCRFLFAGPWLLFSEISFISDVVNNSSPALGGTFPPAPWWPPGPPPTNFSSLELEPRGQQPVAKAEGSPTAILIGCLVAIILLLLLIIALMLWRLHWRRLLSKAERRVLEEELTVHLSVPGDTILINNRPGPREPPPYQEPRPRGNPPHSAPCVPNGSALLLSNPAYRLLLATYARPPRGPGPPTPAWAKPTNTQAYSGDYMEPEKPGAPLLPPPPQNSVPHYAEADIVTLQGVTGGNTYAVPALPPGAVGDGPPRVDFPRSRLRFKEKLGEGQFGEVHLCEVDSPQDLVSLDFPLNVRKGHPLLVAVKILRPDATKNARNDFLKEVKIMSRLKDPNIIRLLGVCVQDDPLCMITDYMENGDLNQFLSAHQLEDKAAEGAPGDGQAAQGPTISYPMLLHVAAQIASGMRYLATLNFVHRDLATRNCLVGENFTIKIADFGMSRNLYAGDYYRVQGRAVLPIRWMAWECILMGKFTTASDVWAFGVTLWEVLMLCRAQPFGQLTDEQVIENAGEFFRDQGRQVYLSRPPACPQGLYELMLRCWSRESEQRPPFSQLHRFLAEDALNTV
Sequence of Epidermal growth factor receptor (Homo sapiens), P00533 [L858R,T790M] (P00533 whole entry T790M/L858R, looked up, the tested form may be a part): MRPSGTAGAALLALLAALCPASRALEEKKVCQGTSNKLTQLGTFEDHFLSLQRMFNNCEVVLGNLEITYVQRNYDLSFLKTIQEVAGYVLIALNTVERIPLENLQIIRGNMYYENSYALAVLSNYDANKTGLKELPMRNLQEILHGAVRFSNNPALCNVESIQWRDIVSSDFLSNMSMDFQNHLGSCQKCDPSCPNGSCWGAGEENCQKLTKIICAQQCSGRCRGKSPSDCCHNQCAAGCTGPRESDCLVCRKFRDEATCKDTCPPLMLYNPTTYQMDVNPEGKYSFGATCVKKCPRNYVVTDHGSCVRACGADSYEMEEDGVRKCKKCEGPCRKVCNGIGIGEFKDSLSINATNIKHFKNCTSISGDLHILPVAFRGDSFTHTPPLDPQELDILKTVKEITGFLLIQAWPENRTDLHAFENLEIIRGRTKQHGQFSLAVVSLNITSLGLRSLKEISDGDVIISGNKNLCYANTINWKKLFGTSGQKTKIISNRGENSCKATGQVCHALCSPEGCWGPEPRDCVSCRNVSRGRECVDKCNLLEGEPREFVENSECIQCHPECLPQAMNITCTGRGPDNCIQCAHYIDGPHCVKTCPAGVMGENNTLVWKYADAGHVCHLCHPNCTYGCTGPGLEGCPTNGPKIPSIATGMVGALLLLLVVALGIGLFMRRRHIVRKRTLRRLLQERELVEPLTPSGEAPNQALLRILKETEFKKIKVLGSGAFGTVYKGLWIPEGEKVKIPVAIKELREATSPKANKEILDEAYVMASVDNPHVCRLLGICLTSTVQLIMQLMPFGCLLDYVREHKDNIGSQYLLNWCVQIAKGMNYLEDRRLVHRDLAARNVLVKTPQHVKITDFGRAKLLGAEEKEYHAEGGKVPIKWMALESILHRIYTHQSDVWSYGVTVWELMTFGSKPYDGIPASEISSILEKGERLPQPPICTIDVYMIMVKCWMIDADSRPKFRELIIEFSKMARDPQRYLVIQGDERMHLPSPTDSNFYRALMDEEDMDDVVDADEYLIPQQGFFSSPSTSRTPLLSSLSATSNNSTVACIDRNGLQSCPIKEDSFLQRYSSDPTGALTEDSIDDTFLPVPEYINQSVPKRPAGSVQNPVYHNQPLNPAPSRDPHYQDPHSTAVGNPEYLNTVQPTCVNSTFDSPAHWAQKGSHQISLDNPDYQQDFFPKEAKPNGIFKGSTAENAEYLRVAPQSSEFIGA

## COc1cc(N2CCC(N3CCN(C)CC3)CC2)ccc1Nc1ncc2c(n1)N(C)c1ccccc1C(=O)N2C
[1]
  inhibition: 62%
[2]
  inhibition: 100%
[3]
  inhibition: 100%
[4]
  inhibition: 100%
[5]
  inhibition: 14%
[6]
  inhibition: 100%
[7]
  inhibition: 100%
[8]
  inhibition: 100%
[9]
  inhibition: 100%
[10]
  inhibition: 100%
[11]
  inhibition: 84%
[12]
  residual activity: 96%
[13]
  residual activity: 34%
[14]
  inhibition: 95%
[15]
  residual activity: 72%
[16]
  inhibition: 42%
[17]
  inhibition: 79%
[18]
  inhibition: 100%
[19]
  inhibition: 100%
[20]
  residual activity: 32%
[21]
  inhibition: 100%
[22]
  inhibition: 100%
[23]
  inhibition: 67%
[24]
  inhibition: 100%
[25]
  inhibition: 100%
[26]
  inhibition: 54%
[27]
  inhibition: 100%
[28]
  residual activity: 28%
[29]
  inhibition: 100%

## CCOc1cc(C(=O)N2CCC(N3CCN(C)CC3)CC2)ccc1Nc1ncc2c(n1)N(C1CCCC1)c1ccccc1C(=O)N2C
[30]
  inhibition: inactive
